Data published in article PMC12290960, “Eremanthus erythropappus as a Source of Antiparasitic Agents: In Vitro and In Vivo Efficacy against Schistosoma mansoni” (ACS Omega, 2025).

Columns and labels:
[1] = system: S. mansoni (49 day old adult infection); assay: In vivo antischistosomal assay in S. mansoni-infected mice (worm burden, oogram, fecal egg count); design: species or system Schistosoma mansoni; conditions: for worm burden reduction (WBR): single dose 400 mg/kg p.o., treated 49 days postinfection, vs vehicle control
Procedure: The Belo Horizonte strain of Schistosoma mansoni was maintained in its life cycle using Biomphalaria glabrata snails (intermediate hosts) and female Swiss mice (final hosts). Three week old female Swiss mice (∼20 g) were obtained from […] para Laboratório (São Paulo, Brazil). Infected snails and mice were housed under controlled conditions (25 °C, 50% humidity, and 12 h light/dark cycles) with ad libitum access to food and water. Mice were percutaneously infected with 80 S. mansoni cercariae and treated 49 days postinfection (adult worm stage). […] At 63 days postinfection, mice were euthanized (CO2), and worms were recovered by mesenteric perfusion. Worm burden reduction was calculated after sexing, , and fecal egg counts were performed as previously described. , The study complied with ARRIVE guidelines, including randomization to minimize bias.

Vero cells = assay: Cytotoxicity in mammalian cells (MTT assay); conditions: CC50 on Vero cells divided by EC50 on schistosomes
S. mansoni adult worms = assay: In vitro antischistosomal assay on adult worms (mortality/viability by motility); format: cell-based, Schistosoma mansoni; conditions: for EC50: Schistosoma mansoni, mortality of S. mansoni adult worms, 95% CI in square brackets; for in vitro antischistosomal activity (in words): concentrations of up to 50 μM
in vitro = conditions: African green monkey

Row | Compound | reduction in immature egg deposition (oogram, EBR immature) ([1]; 400 mg/kg p.o., 49 day old adult infection) [%] | reduction in number of eggs per gram of feces (egg load, EBR) ([1]; 400 mg/kg p.o., 49 day old adult infection, vs control) [%] | worm burden reduction (WBR) [1] [%] | SI (selectivity index) (Vero cells) | EC50 (S. mansoni adult worms) [µM] | CC50 at 72 h (in vitro) [µM] | in vitro antischistosomal activity (in words) (S. mansoni adult worms) | CC50 (in vitro) [µM]
1 | O=C(C1CCCCC1)N1CC(=O)N2CCc3ccccc3C2C1 (stereo not shown) [praziquantel] | 96.8 | 93.9 | 92.6 | >625 | 0.8 | > 500 | – | –
2 | COc1ccc(-c2cc(=O)c3c(O)cc(O)cc3o2)cc1 [acacetin (14), 5,7-dihydroxy-4′-methoxyflavone] | – | – | – | – | > 50 | – | inactive | –
3 | C=C(C)[C@@H]1CC[C@]2(C(=O)O)CC[C@]3(C)[C@H](CC[C@@H]4[C@@]5(C)CC[C@H](O)C(C)(C)[C@@H]5CC[C@]43C)[C@@H]12 [betulinic acid (8), 3β-hydroxy-20(29)-lupaene-28-oic acid] | – | – | 41.9 | – | 36.8 | – | – | > 500
4 | C[C@H]1C(=O)CC[C@@H]2[C@]1(C)CC[C@H]1[C@@]2(C)CC[C@@]2(C)[C@@H]3CC(C)(C)CC[C@]3(C)CC[C@]12C [friedelin (7), friedelan-3-one] | – | – | – | – | > 50 | – | inactive | –
